Experimental data as given in paper PMC7211195 (Investigational New Drugs, 2019).
Where two headings read alike, the source gives them in different places.

Columns and labels:
[1] = parameters: method as in PMID 19056914; details: cited from earlier work
[2] = Lapatinib pharmacokinetics and uptake in rat cerebrospinal fluid (CSF); assay type: in vivo, rats; details: for MRT last: read-out: MRT0-t
Protocol: This study was conducted on rats, which are a promising model to predict P-gp-based drug-drug interactions at the human BBB [15]. The animals were allowed to acclimate for one week before the beginning of the experiments. Adult male Wistar-strain rats (weight 470–525 g) were used in the study. The animals were maintained under standard breeding conditions with a 12/12 h light-dark cycle (lights on at 6.00 a.m., lights off at 6.00 p.m.) at constant room temperature (23 ± 2 °C), relative humidity (55 ± 10%) and ad libitum access to food and water. The experimental protocol for this study was reviewed and approved by the Local Ethics Committee. To obtain consistent data, the study was based on the required minimum number of animals and observation time. […] Three rats were used at each time point (n = 3). In total, the research was conducted on 66 animals (n = 33 in the experimental group and n = 33 in the control group).
Elacridar was freshly dissolved in a vehicle at an initial concentration of 20 mg/mL. […] A volume of 80 μL of blood was collected from each rat by cutting off a piece of its tail. The blood samples were collected into heparinized test tubes at the following time points: before treatment (time 0), 5 min, 30, min, and 1, 2, 3, 4, 6, 8, 12, and 24 h after administration of the drugs, and they were immediately centrifuged at 2880 g for 10 min at 4 °C. The anaesthetized rats (anaesthetized by intramuscular administration of 50 mg/kg ketamine and 10 mg/kg xylazine) were prepared for cisterna magna puncture. The hair over the puncture was removed and the skin was disinfected with alcohol. The animals were placed in a recumbent position with an elevated rear part of the body. The animals’ heads were slightly flexed and immobilized with the operator’s left hand. The space between the occiput rostrally and the atlas (C1) of the spinal column caudally was gently palpated with the left thumb. A 0.7 × 20 G needle with polyethylene tubing (Terumo Poland, Warsaw, Poland) was gently inserted at an approximate angle of 80–90° through the skin with the operator’s right hand into the midsagittal region. The moment that dura mater perforation was perceptible, a small amount of CSF was found in the needle tubing. To sample additional CSF, a 1 mL insulin syringe (Becton Dickinson, Warsaw, Poland) was used to collect 80–120 μL of CSF by very gentle aspiration. Only clear CSF was collected for further analysis. […] The animals’ brains were immediately dissected, washed in 0.9% NaCl and divided along the longitudinal axis. One of the brain hemispheres was again rinsed three times with 5 mL of 0.9% NaCl, weighed and homogenized with 0.9% NaCl (4 mL per 1 g of BT) in an Ultra-Turrax homogenizer (Witko, Łódź, Poland). The homogenate was then centrifuged at 4500 g for 10 min. All samples of the rat BP, CSF, and BT homogenate supernatant were stored at −80 °C until analysis.
The chromatographic analysis was conducted using a 1260 Infinity system (Agilent Technologies, Santa Clara, USA) equipped with a Kinetex® C18 column (50 × 4.6 mm, 2.6 μm, Phenomenex, Torrance, USA), which was maintained at 35 °C. The mobile phase consisted of 0.1% formic acid (v/v) in water with 5 mM ammonium formate (solvent A) and acetonitrile with 10% phase A (v/v, solvent B). The analyte and internal standard (IS, erlotinib) were eluted using a gradient run of 10 min as follows: 95% A at 0–2 min; 95%–5% A at 2–4 min; 5% A at 4–5 min; 5%–95% A at 5–6 min; 95% A at 6–10 min. The flow rate and injection volume were set at 0.7 mL/min and 10 μL, respectively. The needle was washed for 30 s in a mixture of acetonitrile, methanol, isopropanol, water, and formic acid (50:20:15:15:0.25, v/v/v/v/v).

[3] = as above; assay type: in vivo, rats; details: male, Wistar, po, 100 mg/kg, lapatinib p.o. 100 mg/kg alone, read-out: Clapatinib in CSF, single rat
[4] = cited from earlier work
[5] = cerebrospinal fluid, lapatinib 100 mg/kg oral + 5 mg/kg elacridar (IE+L)
[6] = cerebrospinal fluid, lapatinib 100 mg/kg oral alone (IIL)
[7] = male, Wistar, rat, cerebrospinal fluid (CSF), po, 100 mg/kg, lapatinib p.o. 100 mg/kg alone, read-out: Clapatinib in CSF, S (medium value)
[8] = male, Wistar, rat, cerebrospinal fluid (CSF), po, 100 mg/kg, lapatinib p.o. 100 mg/kg alone, read-out: Clapatinib in CSF, single rat
[9] = male, Wistar, rat, cerebrospinal fluid, oral, lapatinib 100 mg/kg + elacridar, read-out: Clapatinib in CSF, S
[10] = male, Wistar, rat, cerebrospinal fluid, oral, lapatinib 100 mg/kg + elacridar, read-out: Clapatinib in CSF, single rat
[11] = male, Wistar, rat, cerebrospinal fluid, po, 100 mg/kg, cerebrospinal fluid, lapatinib 100 mg/kg oral + 5 mg/kg elacridar (IE+L)
[12] = male, Wistar, rat, cerebrospinal fluid, po, 100 mg/kg, lapatinib 100 mg/kg oral alone (IIL)

AUC0-∞ increase by elacridar ([2]; CSF): 1.5 fold
Cmax increase in IE+L vs control ([2]; CSF): 2.4 fold
Kp decrease in IL+E group vs control ([2]; CSF): 42.9%
t0.5 longer in the presence of elacridar ([2]; CSF): 2.6 times
AUC0-t elevated in IE+L ([2]; CSF, IE+L vs IIL group): 61.2%
Cmax increase with elacridar ([2]; CSF, IE+L vs IIL group): 136.4%
AUMC0-t [2, 5]: 1620.02 ng × h^2/mL
AUMC0-∞ [2, 5]: 2725.51 ng × h^2/mL
AUMC0-t [2, 6]: 1257.21 ng × h^2/mL
AUMC0-∞ [2, 6]: 1767.90 ng × h^2/mL
Kp ([2]; male, Wistar, rat, CSF / plasma, oral, 100 mg/kg, IIL group, read-out: Cmax,CSF/Cmax,BP ratio): 0.012
Kp ([2]; male, Wistar, rat, CSF / plasma, oral, with elacridar 5 mg/kg intraperitoneally, 30 min before lapatinib, IE+L group, read-out: Cmax,CSF/Cmax,BP ratio): 0.026
concentration at 0.25 h ([2]; male, Wistar, rat, cerebrospinal fluid (CSF), po, 100 mg/kg, lapatinib p.o. 100 mg/kg alone, 0.25 h, read-out: Clapatinib in CSF, S (medium value)): 3.73 ng/mL
concentration at 1 h [2, 7]: 38.5 ng/mL
concentration at 1 h [2, 8]: 38.5 ng/mL
concentration at 2 h [2, 7]: 10.8 ng/mL
concentration at 2 h [2, 8]: 10.8 ng/mL
concentration at 3 h [2, 7]: 12.2 ng/mL
concentration at 3 h [2, 8]: 9.49 ng/mL
concentration at 4 h [2, 7]: 13.8 ng/mL
concentration at 4 h [2, 8]: 13.8 ng/mL
concentration at 6 h [2, 7]: 26.9 ng/mL
concentration at 6 h [2, 8]: 26.9 ng/mL
concentration at 8 h [2, 7]: 24.4 ng/mL
concentration at 8 h [2, 8]: 24.4 ng/mL
concentration at 12 h [2, 7]: 7.23 ng/mL
concentration at 0.5 h ([2]; male, Wistar, rat, cerebrospinal fluid, oral, lapatinib 100 mg/kg + elacridar, 0.5 h, read-out: Clapatinib in CSF, S): 40.7 ng/mL
concentration at 1 h [2, 9]: 30 ng/mL
concentration at 2 h [2, 9]: 75.7 ng/mL
concentration at 3 h [2, 9]: 51.2 ng/mL
concentration at 3 h [2, 10]: 45.6 ng/mL
concentration at 4 h [2, 9]: 91 ng/mL
concentration at 4 h [2, 10]: 91 ng/mL
concentration at 6 h [2, 9]: 4.27 ng/mL
concentration at 6 h [2, 10]: 4.27 ng/mL
concentration at 8 h [2, 9]: 1.03 ng/mL
concentration at 8 h [2, 10]: 1.03 ng/mL
concentration at 12 h [2, 9]: 2.62 ng/mL
concentration at 12 h [2, 10]: 2.62 ng/mL
concentration at 24 h [2, 9]: 2.84 ng/mL
concentration at 24 h [2, 10]: 2.84 ng/mL
k el ([2]; male, Wistar, rat, cerebrospinal fluid, po, 100 mg/kg): 6.39e-05 s⁻¹
AUC(0-inf) [2, 11]: 387 ng·h/mL
AUC(0-t) [2, 11]: 356 ng·h/mL
Cmax [2, 11]: 91 ng/mL
Tmax [2, 11]: 4 h
MRT last [2, 11]: 4.55 h
MRT last ([2]; male, Wistar, rat, cerebrospinal fluid, po, 100 mg/kg, cerebrospinal fluid, lapatinib 100 mg/kg oral alone (IIL)): 5.7 h
AUC(0-inf) [2, 12]: 252 ng·h/mL
AUC(0-t) [2, 12]: 221 ng·h/mL
Cmax [2, 12]: 38.5 ng/mL
Tmax [2, 12]: 1 h
Kp ([2]; male, Wistar, rat, cerebrospinal fluid, po, 100 mg/kg, read-out: Kp (tissue-to-plasma partition coefficient, AUC0-∞-tissue/AUC0-∞-plasma)): 0.007
concentration at 0.25 h [3]: 4.47 ng/mL
SMILES: CS(=O)(=O)CCNCc1ccc(-c2ccc3ncnc(Nc4ccc(OCc5cccc(F)c5)c(Cl)c4)c3c2)o1 [lapatinib, N-{3-Chloro-4-[(3-fluorobenzyl)oxy]phenyl}-6-[5-({[2-(methylsulfonyl)ethyl]amino}methyl)-2-furyl]-4-quinazolinamine]
Kp,BT ([1]; WT mice, 24-h intravenous administration): 0.04
Kp,BT times greater than in WT mice ([1]; mdr1a/b(−/−)/bcrp(−/−) mice): 40 times
binds with plasma proteins [4]: 99%
